6 compounds from patent US20080153888A1, “ALPHA-2-DELTA LIGAND/NSAID THERAPEUTIC TREATMENT OF LOWER URINARY TRACT DISORDERS” (Recordati Ireland Limited, priority 2006, published 2008) can be followed below.

This assay concerns anesthetized rats with acetic acid bladder infusion (animal model of overactive bladder). In words: Cystometry in anesthetized rats with acetic acid bladder infusion.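 On all read-outs here: Single-filling cystometrograms via bladder-dome catheter, basal values taken after 60 min saline infusion, BVC as mL infused until micturition, MP as peak intravesical pressure (mm Hg).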 Format: in vivo, rat. The following applies: for % Bladder Volume Capacity (vs basal) ± S.E. / ED60 (CL 95%) of recovery of Bladder Volume Capacity to basal value: single drug; for % Bladder Volume Capacity (vs basal) ± S.E.: cumulative administration; for ED60 (CL 95%) of recovery of Bladder Volume Capacity to basal value: i.v., cumulative dose-response.

The structures appear in SMILES notation.

Method: Female rats (225-250 g body weight) were anesthetized with urethane (1.25 g/kg s.c.) and a catheter (PE-50, 0.58 mm I.D.×0.96 mm O.D.) was inserted into the jugular vein for intravenous drug administration. A midline lower abdominal incision was made and a second PE-50 catheter was inserted into the bladder dome for bladder filling and pressure recording, and the incision was sutured.
Dosages were administered by injection in a volume of 1 ml per kg body weight.
a) Saline was continuously infused at a rate of 0.055 ml/min by mean of a peristaltic pump via the bladder-filling catheter for 60 minutes to obtain a baseline of bladder activity. Then the infusion pump was stopped and the bladder was emptied of residual fluid by capillarity via the infusion catheter. After this procedure, a single filling cystometrogram was performed in order to determine the two urodynamic parameters: bladder volume capacity (BVC) and micturition pressure (MP) (BVC and MP BASAL VALUES).
After 30 minutes of acetic acid infusion, 3 vehicle injections were made at 20 minute intervals. Then the infusion pump was stopped, the bladder was emptied and a single filling cystometrogram was recorded as reported before (BVC and MP VALUES AFTER IRRITATION).
This procedure was repeated for three times in order to follow a cumulative dose-response protocol.
BVC is defined as the volume (mL) of fluid (saline or dilute acetic acid) infused in the bladder necessary to induce detrusor contractions followed by micturition. MP is defined as the maximal intravesical pressure (mm Hg) determined by the contraction of the detrusor during micturition.
Changes in bladder capacity for each animal were expressed as “% bladder volume capacity vs. basal (saline infusion)” and an increase in this index was used as measure of efficacy (recovery from irritation to basal value).

On to `O=C(O)Cc1ccccc1Nc1c(Cl)cccc1Cl` [Diclofenac, diclofenac], for which the “ED60 (CL 95%) of recovery of Bladder Volume Capacity to basal value” (shortened to “ED60 (CL 95%)”) is given as 0.85 (0.80-0.90). Further, the “% Bladder Volume Capacity (vs basal) ± S.E.” value (“% Bladder Volume Capacity” for short) (dose 0.3 mg/kg i.v.) is listed as 41 ± 10%. Also, the “% Bladder Volume Capacity” value (dose 1.0 mg/kg i.v.) was 63 ± 13%. For the same compound, the “% Bladder Volume Capacity” value (dose 3 mg/kg i.v.) was determined as 82 ± 15%.

In the case of `CC(C(=O)O)c1ccc(-c2ccccc2)c(F)c1` (stereo not shown) [Flurbiprofen, flurbiprofen], the “ED60 (CL 95%)” value was 2.34 (nc-4.77). Further, the “% Bladder Volume Capacity” value (dose 0.1 mg/kg i.v.) amounted to 43 ± 11%. Also, the “% Bladder Volume Capacity” value (dose 0.3 mg/kg i.v.) turned out to be 42 ± 6%. The “% Bladder Volume Capacity” value (dose 1.0 mg/kg i.v.) is reported as 49 ± 9%. Further, the “% Bladder Volume Capacity” value (dose 3 mg/kg i.v., 3 mg/kg) is 62 ± 10%. For the same compound, the “% Bladder Volume Capacity” value (dose 10 mg/kg i.v.) worked out at 73 ± 12%.

In the case of `NCC1(CC(=O)O)CCCCC1` [Gabapentin], the “ED60 (CL 95%)” value is 112 (75-149). Besides, the “% Bladder Volume Capacity” value (dose 30 mg/kg i.v.) came out at 27 ± 4%. Where the note is “dose 60 mg/kg i.v.”, the “% Bladder Volume Capacity” value worked out at 51 ± 15%. Further, the “% Bladder Volume Capacity” value (dose 100 mg/kg i.v.) turned out to be 55 ± 9%. In addition, the “% Bladder Volume Capacity” value (dose 300 mg/kg i.v.) is given as 82 ± 12%.

Turning to `CS(=O)(=O)Nc1ccc([N+](=O)[O-])cc1Oc1ccccc1` [Nimesulide], the “ED60 (CL 95%)” value is on record as >>10. The “% Bladder Volume Capacity” value (dose 0.3 mg/kg i.v.) turned out to be 38 ± 10%. For the same compound, for the setting “dose 1.0 mg/kg i.v.”, the “% Bladder Volume Capacity” value is 36 ± 12%. The “% Bladder Volume Capacity” value (dose 3 mg/kg i.v.) stood at 37 ± 7%. Besides, where the note is “dose 10 mg/kg i.v.”, the “% Bladder Volume Capacity” value was determined as 47 ± 15%.

In the case of `CC(C)C[C@H](CN)CC(=O)O` [Pregabalin, pregabalin], the “ED60 (CL 95%)” value was 300.5 (n.c.-n.c.). Further, the “micturition pressure (MP)” value (after increase of MP induced by acetic acid infusion, data not shown) is given as “recovered to basal values”. Besides, for the setting “dose 10 mg/kg i.v.”, the “% Bladder Volume Capacity” value came out at 31 ± 6%. In addition, under “dose 30 mg/kg i.v.”, the “% Bladder Volume Capacity” value is recorded as 35 ± 6%. In addition, the “% Bladder Volume Capacity” value (dose 100 mg/kg i.v.) worked out at 52 ± 8%.

Take `CC1=C(CC(=O)O)c2cc(F)ccc2/C1=C\c1ccc([S+](C)[O-])cc1` (stereo not shown) [Sulindac, sulindac]: the “ED60 (CL 95%)” value is on record as >30. The “% Bladder Volume Capacity” value (dose 0.3 mg/kg i.v.) was 27 ± 5%. Further, the “% Bladder Volume Capacity” value (dose 1.0 mg/kg i.v.) stood at 39 ± 11%. The “% Bladder Volume Capacity” value (dose 3 mg/kg i.v.) was determined as 34 ± 8%. In addition, the “% Bladder Volume Capacity” value (dose 10 mg/kg i.v.) came to 38 ± 4%. Further, the “% Bladder Volume Capacity” value (dose 30 mg/kg i.v.) stood at 54 ± 8%.
